Assay results from article PMC6516660, “Construction of a pathway to C50-ε-carotene” (PLoS ONE, 2019).
Residue numbers refer to the chain shown, from its start.

What was measured:
Experiment in all cases: carotenoid production in E. coli, HPLC-PDA-MS
Assay type in all cases: cell-based
AtE (At-y2) [1] = target: T1, AtE (At-y2) (Arabidopsis thaliana, UniProt Q38932)
T1 construct: gene LUT2; full-length (transit peptide kept), pUCara plasmid, expressed in E. coli XL1-Blue with carotenoid pathway enzymes
T1 sequence (Q38932 1-524): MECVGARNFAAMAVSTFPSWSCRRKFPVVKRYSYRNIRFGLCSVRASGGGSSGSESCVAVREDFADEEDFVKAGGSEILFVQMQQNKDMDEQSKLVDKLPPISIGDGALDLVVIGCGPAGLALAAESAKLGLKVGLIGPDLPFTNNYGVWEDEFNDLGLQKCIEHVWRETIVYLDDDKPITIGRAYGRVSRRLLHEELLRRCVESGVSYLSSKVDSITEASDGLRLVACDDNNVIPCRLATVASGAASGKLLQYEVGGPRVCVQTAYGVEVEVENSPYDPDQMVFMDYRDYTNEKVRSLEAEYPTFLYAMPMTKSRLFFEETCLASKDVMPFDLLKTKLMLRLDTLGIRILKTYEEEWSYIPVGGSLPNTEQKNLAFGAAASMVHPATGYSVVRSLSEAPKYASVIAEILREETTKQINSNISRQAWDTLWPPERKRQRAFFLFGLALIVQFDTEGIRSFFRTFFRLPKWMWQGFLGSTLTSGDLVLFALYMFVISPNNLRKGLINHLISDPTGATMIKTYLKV

AtE (At-y2) [2] = target: T2, AtE (At-y2) (Arabidopsis thaliana, UniProt Q38932, L448H); conditions: E. coli making C40-lycopene
T2 construct: gene LUT2; full-length (transit peptide kept), pUCara plasmid, expressed in E. coli XL1-Blue with carotenoid pathway enzymes
T2 sequence (Q38932 1-524 L448H): T1 sequence (Q38932 1-524) with L448H

LsE = target: T3, LsE (Lactuca sativa, UniProt Q9AXK7); conditions: E. coli making C40-lycopene; product ε,ε-carotene
T3 construct: pUCara plasmid, expressed in E. coli XL1-Blue with carotenoid pathway enzymes
T3 sequence (Q9AXK7 1-533 limits assumed): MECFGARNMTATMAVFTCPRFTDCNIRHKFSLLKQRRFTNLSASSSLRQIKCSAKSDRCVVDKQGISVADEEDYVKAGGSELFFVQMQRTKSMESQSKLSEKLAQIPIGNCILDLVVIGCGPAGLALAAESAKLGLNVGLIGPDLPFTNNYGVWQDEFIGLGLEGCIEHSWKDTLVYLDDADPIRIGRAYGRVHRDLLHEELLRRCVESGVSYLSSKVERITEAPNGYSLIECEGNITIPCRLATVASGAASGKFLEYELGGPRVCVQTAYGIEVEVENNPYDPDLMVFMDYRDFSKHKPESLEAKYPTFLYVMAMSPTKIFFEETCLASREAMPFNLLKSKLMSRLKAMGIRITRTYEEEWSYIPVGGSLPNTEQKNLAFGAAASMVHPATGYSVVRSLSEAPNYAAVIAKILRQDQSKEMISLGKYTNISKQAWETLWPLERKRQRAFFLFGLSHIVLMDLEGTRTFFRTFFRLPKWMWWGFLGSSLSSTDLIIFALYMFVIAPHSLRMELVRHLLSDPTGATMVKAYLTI

SMILES	carotenoid production in E. coli, HPLC-PDA-MS (AtE (At-y2) [1]; E. coli making C50-lycopene, TB medium, L-arabinose induction, product C50-ε,ε-carotene)	carotenoid production in E. coli, HPLC-PDA-MS (AtE (At-y2) [1]; E. coli making C40-lycopene, product δ-carotene (ε,ψ-carotene))	carotenoid production in E. coli, HPLC-PDA-MS (AtE (At-y2) [2])	carotenoid production in E. coli, HPLC-PDA-MS (LsE)
CC(C)=CCC/C(C)=C/C=C/C(C)=C/C=C/C(C)=C/C=C/C(C)=C/C=C/C=C(C)/C=C/C=C(C)/C=C/C=C(C)/C=C/C=C(\C)CCC=C(C)C [C50-lycopene]	AtE cyclized both ends of the C50-lyopene (Fig 2C)			
CC(C)=CCC/C(C)=C/C=C/C(C)=C/C=C/C(C)=C/C=C/C=C(C)/C=C/C=C(C)/C=C/C=C(\C)CCC=C(C)C [C40-lycopene]		this enzyme fully consumed its natural substrate C40-lycopene and yielded ε, ψ-carotene	very subtle effect (if not none) of L448H also in the natural C40 pathway	LsE could equally and efficiently act on both sides of C40-lycopene (Fig 3B)
